Assay results published in patent US20090203636A1, “Prevention and Treatment of Cancer and Other Diseases” (priority 2006, published 2009).
Where “and” joins values, the source holds several entries; their conditions need not be identical. Equal values may be shown once.

Tests used:
NuTu-19 cells = test: Telomere length (flow cytometry, PNA probe), cell cycle distribution (PI) and apoptosis in NuTu-19 cells; format: cell-based; conditions: AZT even at elevated concentrations e.g., 100 μM
Method: (§1) The origin of the cell lines are uterine cervix (HeLa) and epithelial ovarian (NuTu-19). Cells were cultured in D-MEM media supplemented with 10% fetal calf serum at 37° C. in a humidified atmosphere of 5% CO2. For treatment of the cells with GCV, the media was supplemented with 1.5 μM of GCV (Cymevene, Hoffman-La Roche). For treatment of the cells with ACV, the media was supplemented with 3 μM of Acyclovir (Acyclovir, TEVA Pharm. Ind. Id. Israel).
(§2) Real time TRAP assay was performed as described (Wege et al., SYBR Green real-time telomeric repeat amplification protocol for the rapid quantification of telomerase activity. Nucleic Acids Res. 2003; 31(2):E3-3). For telomere length measurement by flow cytometry, cells were stained with telomere specific FITC conjugated (C3TA2)3 PNA (Applied Biosystems) probe and contrastained with 0.06 μg/ml PI as described by Rufer, N., Dragowska, W., Thornbury G., Roosnek, E., Lansdorp P. M. Telomere length dynamics in human lymphocyte subpopulations […]. Nat. Biotechnol. 16, 743-747 (1998)).

U-2 OS cells [1] = conditions: therapeutic concentrations, 14 days; reported in WO 2005/069880; cited from earlier work
[2] = system: Saos-2 osteosarcoma cells; conditions: therapeutic concentrations, 14 days; reported in WO 2005/069880; cited from earlier work
HeLa cells [3] = test: Telomere length (flow cytometry, PNA probe), cell cycle distribution (PI) and apoptosis in HeLa cells; format: cell-based, human
Method: (§3) The ALT cell lines were treated with therapeutic concentrations of AZT, to determine if slippage telomeric DNA synthesis could be inhibited by AZT-TP, and thereby induce telomere shortening. Telomere length in AZT treated and untreated cell lines was measured by flow cytometry with a telomere specific peptide nucleic acid (PNA) probe. To determine cell cycle distribution, cells were stained with propidium iodide (PI).
as §1, §2
(§4) Both telomerase positive (Hela) telomerase negative (U-2 OS) cell lines were used. Appropriate assays were performed to detect and confirm telomerase/L1RT specific activity in these cells.
(§5) The U-2 OS (osteosarcoma) and HeLa (uterine cervix) cell lines used in this study were obtained from American Type Culture Collection (Rockville, Md.). Cells were cultured in D-MEM media supplemented with 10% fetal calf serum at 37° C. in a humidified atmosphere of 5% CO2. For treatment of the cells with ACV, the media was supplemented with 3 μM of acyclovir (acyclovir, TEVA Pharm. Ind. Ltd, Israel). For treatment of the cells with GCV, the media was supplemented with 1.5 μM of GCV (Cymevene, Hoffman-La Roche). For treatment of the cells with PCV, the media was supplemented with 1.5 μM of PCV (penciclovir, Merck & Co.).
(§6) Telomere length in SN 1 or SN 2 treated and untreated cell lines was measured by flow cytometry with a telomere—specific peptide nucleic acid PNA) probe. To determine cell cycle distribution, cells were stained with propidium iodide (PI).
(§7) The U-2 OS (osteosarcoma) and Hela (uterine cervix) cell lines used in this study were obtained from American Type Culture Collection (Rockville, Md.). Cells were cultured in D-MEM media supplemented with 10% fetal calf serum at 37° C. in a humidified atmosphere of 5% CO2. For treatment of the cells with SN 1 or SN 2, the media was supplemented with 1.5 μM of SN1 or SN2.
(§8) For telomere length measurement by flow cytometry, cells were stained with telomere specific FITC conjugated (C3TA2)3 PNA (Applied Biosystems) probe and contra-stained with 0.06 μg/ml PI as described by Rufer, N., Dragowska, W., Thornbury G., Roosnek, E., Lansdorp P. M. Telomere length dynamics in human lymphocyte subpopulations […]. Nat. Biotechnol. 16, 743-747 (1998)).

[4] = system: Saos-2 osteosarcoma cells; test: Telomere length (flow cytometry, PNA probe), cell cycle distribution (PI) and apoptosis in Saos-2 cells; format: cell-based, human; conditions: therapeutic concentrations of AZT, 14 days
Method: as §3

U-2 OS/RAS cells = test: Prevention and treatment of telomerase negative (ALT) tumors in nude mice injected s.c. with U-2 OS/RAS cells; format: in vivo
Method: (a) Nude mice injected with U-2 OS/RAS cells: Crl1:CD1-/nu mice were purchased from Charles River Laboratories, Charles River Deutschland GmbH (Dec. 23, 2004). A total of 12 Nude mice were injected s.c. with 6×10^5 U-2 OS/RAS cells. These mice were divided into experimental and control groups.
The experimental group of mice started to receive AZT in drinking water (1 mg/ml) from the day one. In the control group, mice developed tumors (in N1 by the 26th day; in N2 by the […] and in N3 by the 41st day following the tumor cell injection).
All mice without tumors were sacrificed. One mouse from control group that developed tumors first was sacrificed on the 51 day following the tumor cell injection. Tumor tissue was mechanically separated to raise cell suspension. About 20 million of cells were seeded in McCoy's 5 A media supplemented with 10% FCS. The tissue cultured cells were used for further analysis.
Two mice from control group with tumors started to receive AZT in drinking water (1 mg/ml) from day 52. One mouse had died on day 80. Second was sacrificed on day 110 following the tumor cell injection. Tumor tissue was collected and stored at −80° C. for further analysis.

U-2 OS cells [5] = test: Telomere length (flow cytometry, PNA probe), cell cycle distribution (PI), apoptosis and TRAP status in U-2 OS cells; format: cell-based, human
Method: as §3
Rate of DNA synthesis was determined by incorporation of 5-bromodeoxyuridine (BdU). […] It is important to note that changes in cell cycle distribution, DNA synthesis and telomere length were rapid and could be detected after only 10 days of AZT treatment.
Telomere length in untreated and GCV treated cells was measured by flow cytometry with a telomere-specific PNA probe as described above.
To determine cell cycle distribution, cells were stained with propidium iodide (PI).
as §4, §5, §2
(a) In vitro arrays: U-2 OS cells were incubated with 0.2 μM of AZT for 22 days. Actively growing clones were analyzed by flow-FISH with telomere specific PNA probe, and in real time TRAP assay using HeLa cells as positive control. Isolated actively growing clones were different from parental cells in DNA content and telomere length.
as §6, §7, §8

[6] = system: inoperable carcinoma of stomach; format: in vivo, human; conditions: one patient
Method: (a) Background therapy: 1 tablet of Retrovir® (AZT) 300 mg and 1 tablet of Zovirax™ (acyclovir, Glaxo Welcome), 400 mg/Valcyte® (valganciclovir) 450 mg/Valtrex® (Val-ACV) 500 mg all BID. Different acyclic nucleoside analogs were used during the 83 days of background therapy for reasons related to market availability.

MH22A cells = test: MH22a hepatoma tumors in C3HA mice, Cocktails 1-6 followed by added Xeloda (Example 10c, second experiment); format: in vivo, C3HA inbred mice
Method: In Vivo assays using the compounds of the formulas (I) to (IV) and valine esters of formulas I and II each in a triple cocktail with other nucleoside analogs and tumor in combination with AZT and ddI were carried out as follows:
8-10 weeks old male C3HA inbred mice (immunocometent mice) were purchased from Laboratory Animals Breeding Facility of Russian Academy of Medical Science (Rappalovo, Leningrad region). 3×10^5 MH22a cells were injected s.c. into back flank of 200 mice. Ten days after the injections, mice bearing developing tumors (14.15 mm^3) (the tumor volume calculated using the formula π/6 DmaxDmin^2) were selected and randomly divided into different experimental groups as set forth below:
Cocktail 1—Valacyclovir (0.166 mg/ml)+AZT (0.1 mg/ml)+ddI (0.066 mg/ml)−40 mice;
Cocktail 2—SN-1 (1 mg/ml)+AZT (0.1 mg/ml)+ddI (0.066 mg/ml)−10 mice;
Cocktail 3—SN-3 (1 mg/ml)+AZT (0.1 mg/ml)+ddI (0.066 mg/ml)−10 mice;
Cocktail 4—SN4 (1 mg/ml)+AZT (0.1 mg/ml)+ddI (0.066 mg/ml)−10 mice;
cocktail 5—Val-SN-1 (0.166 mg/ml)+AZT (0.1 mg/ml)+ddI (0.066 mg/ml)−20 mice; and
Cocktail 6—Val-SN-2 (0.166 mg/ml)+AZT (0.1 mg/ml)+ddI (0.066 mg/ml)−20 mice; and
Control group—Capecitabine (Xeloda®) (1 mg/ml) in drinking water-mice.
Valacyclovir (Valtrex® manufactured by GlaxoSmithKline) is a prodrug of acyclovir, which is an acyclic nucleoside analog. Didanosine (ddI) and AZT are non-acyclic-nucleoside analogs. The drugs, at the concentrations indicated above, were administered to the mice in drinking water. Two weeks following the cocktail treatments Xeloda® (1 mg/ml) was added to each of the cocktails and continued for the remaining experimental period. In the control group, mice were treated only with Xeloda® (1 mg/ml) in drinking water and this treatment started at the same time as the Xeloda® treatments in the cocktail groups. […] Tumor volumes (mm^3) in each injected mice were calculated, using the formula π/6 DmaxDmin^2, every week for four consecutive weeks following the commencement of the treatment with the drugs.

HeLa cells [7] = format: in vivo
Method: For in vivo assay, appropriate host, e.g., nude (nu/nu) mice of about 5-7 weeks old are obtained and maintained in pathogen-free conditions. Approximately, 1×10^6 HeLa cells (and/or U-2 OS cells) contained in 200 μl of serum-free media are delivered to all animals, briefly anaesthetize with Metofane, by subcutaneous (s.c.) injection in flank. Then the mice are divided into experimental group and control group. Appropriate concentrations of compounds of the formulas (I) to (VI), ACV, PCV and/or GCV are used for tumor growth progression or regression assays.
In one embodiment, impairment of s.c. tumor growth or time to progression rather than decrease in size of an established tumor (regression) is assessed. In this embodiment, starting from the day zero, mice in the experimental group receive GCV in drinking water ad libitum. Concentration of GCV in water can be 2 mg/ml. Fresh solution of GCV is supplied every 3 days. Mice in the control group receive only drinking water. Tumors are measured every 2-3 days. Mice are sacrificed when tumors exceed 1 cm^3. Tumor volume is calculated with formula 4/3πr^3, where r is the radius of the tumor.
Experimental group received valganciclovir in drinking water from day 0. Human cancer HeLa cell culture was purchased from ATCC. In all, 12 CD1/-nu and 12 NMRiI/-nu nude mice were purchased from Charles River Laboratories, Charles River Deutschland GmbH. These nude mice were injected s.c. with 3×10^5 Hela cells. Mice in the experimental groups (6 mice per strain) were exposed to Valcyte® (val-ganciclovir) in drinking water (1 mg/ml) from day 0.
(a) In vivo assays using Valganciclovir and zidovudine (AZT) combination: Human cancer HeLa cell culture was purchased from ATCC. A total of 24 CD1/-nu nude mice were purchased from Charles River laboratories, Charles River Deutschland GmbH. These mice were injected s.c. with 1×10^5 HeLa cells. The tumor volumes were determined by measurement of maximal and minimal diameters of the tumor. The calculations were conducted using the formula V=4/3 πRmax×Rmin^2, where Rmax−½ of maximal diameter of the tumor, and Rmin−½ of minimal diameter of the tumor. nude mice were injected s.c. with 1×10^5 Hela cells.
Of the 12 treated mice, after 20 days of double cocktail treatment, six mice were administered with a triple cocktail (Valcyte®+Retrovir®+ddI at the dose of 1 mg/ml each in drinking water for a further period 21 days (see Example 7 below) and only six mice continued to receive the double cocktail for another 21 days at which time tumor measurements were taken for all mice injected with HeLa cells. Of the remaining 12 mice injected with HeLa cells but untreated with any cocktail or anticancer agent thus far, six were maintained as controls for the rest of the duration of the experiment. The other six were treated with Xeloda® 67 days after the injection of HeLa cells (see Example 7 below).
As mentioned in Example 5 above, a total of six mice, after 20 days of double cocktail treatment, were administered with a triple cocktail (Valcyte®+Retrovir®+ddI at the dose of 1 mg/ml each in drinking water) for a further period 21 days. After 14 days of triple cocktail treatment, Xeloda® at a concentration 1 mg/ml was added to the triple cocktail. Six mice previously untreated with any drug for 67 days after the injection of HeLa cells were treated with Xeloda® at a concentration 1 mg/ml in drinking water. Tumor measurements were taken in all mice 75 days following the injection of HeLa cells.

[8] = Xeloda 1 mg/ml added to cocktails after two weeks

Structure (SMILES) | telomere length or cell cycle distribution (NuTu-19 cells) | telomere length, cell cycle and apoptosis (U-2 OS cells [1]) | telomere length, cell cycle and apoptosis [2] | telomere length or cell cycle distribution (HeLa cells [3]; AZT at the chosen concentration, same conditions as ALT cells) | telomere length or cell cycle distribution (HeLa cells [3]; AZT even at elevated concentrations e.g., 100 μM) | telomere length, apoptosis and cell cycle distribution [4] | growth of established ALT tumors (U-2 OS/RAS cells; AZT in drinking water (1 mg/ml) from day 52) | tumor development (U-2 OS/RAS cells; AZT in drinking water (1 mg/ml) from day one, three of six control mice developed tumors) | telomerase status (real time TRAP assay) of actively growing clones (U-2 OS cells [5]; 0.2 μM of AZT for 22 days) | telomere length and rate of DNA synthesis (BdU incorporation) (U-2 OS cells [5]; AZT for different amounts of time) | telomere length, apoptosis and cell cycle distribution (U-2 OS cells [5]; therapeutic concentrations of AZT, 14 days) | toxicity in the patient [6] | Number tumor-free (MH22A cells; 4 weeks of treatment, Xeloda 1 mg/ml added to cocktails after two weeks) | Number died during the 4 week treatment period (MH22A cells; [8]) | Number showing tumors after four weeks of treatment (MH22A cells; [8]) | Tumor volume at the end of the experimental period (MH22A cells; individual tumor-bearing mice, formula π/6 DmaxDmin^2) | average size of tumors less compared to the untreated control group (HeLa cells [7]; Xeloda 1 mg/ml in drinking water from day 67) | survival (HeLa cells [7]; drugs 1 mg/ml each in drinking water, 75 days following injection of HeLa cells) | Tumor Volume (mm^3) in nude mice 75 days following the injection of HeLa cells (HeLa cells [7]; mean value of 4 mice)
Cc1cn([C@H]2C[C@H](N=[N+]=[N-])[C@@H](CO)O2)c(=O)[nH]c1=O [AZT, azido-2′,3′-dideoxythymidine] | no effect on telomere length or cell cycle distribution | telomere shortening, G2 arrest and massive apoptosis | telomere shortening, G2 arrest and massive apoptosis | no effect on telomere length or cell cycle distribution | no effect on telomere length or cell cycle distribution | telomere shortening, massive apoptosis and G2 arrest | slowing of tumor growth | No one mice from AZT treated group had developed tumors | positive for telomerase | progressive telomere shortening and decrease in DNA synthesis | telomere shortening, massive apoptosis and G2 arrest | – | – | – | – | – | – | – | –
CCCCCOC(=O)Nc1nc(=O)n([C@@H]2O[C@H](C)[C@@H](O)[C@H]2O)cc1F [Xeloda®] | – | – | – | – | – | – | – | – | – | – | – | caused toxicity in the patient | 0 | 2 | 6 | 6288 mm^3 (2×) and 10480 mm^3 and 1152 mm^3 and 2146 mm^3 and 4192 mm^3 | 17% | 66% | 1811.0 (mean value) mm^3
